Each structure is given as a SMILES string.

For data set [1], the system named is Gastric acid secretion. Nature of the data set: Gastric acid secretion in pylorus-ligated rats. Particulars: Rattus norvegicus, read-out: (B) Pylorus-ligated rats ED50. In kind it is in vivo, Male Wister rats. On the procedure:
(ii) Gastric acid secretion in pylorus-ligated rats
Male Wister rats weighing about 200 g were deprived of food for 24 hr but allowed free access to water prior to the experiments in individual cages. […] Test compounds were intraduodenally given immediately after the ligation of pylorus. The animals were sacrificed 4 hr after drug administration and gastric contents were collected. […] The percent inhibition of gastric secretion by each dose of drugs was calculated from the acid outputs of control and of treated groups. ED50 values were determined by the probit method.

In data set [2] the test system is Gastric acid secretion. The data set is described as follows: Gastric acid secretion in anesthetized dogs (histamine-induced). In kind it is in vivo, Mongrel dogs. The conditions noted are these: Canis lupus familiaris, iv, read-out: (A) Gastric secretion ED50. On the procedure: (i) Gastric acid secretion in anesthetized dogs: Mongrel dogs weighing 8 to 15 Kg were deprived of food for 24 hr and anesthetized intravenously with pentobarbital (30 mg/Kg). […] The gastric juice was collected from the gastric cannula by gravity drainage every 15 min. Test compounds were given intravenously after gastric secretion induced by a continuous intravenous infusion of histamine (160 μg/Kg-hr) reached a steady state.

The nature of another data set: Acute toxicity in mice. The conditions noted are these: mouse, in vivo, iv; male ICR mice; i.v.; 7 days observation; up and down method; base; read-out: (C) LD50 in mice. On the procedure: (iii) Acute toxicity in mice
Drugs were injected intravenously in male ICR mice weighing about 35 g at a rate of 0.1 ml/10 sec and the animals were kept under observation for 7 days. LD50 values were determined by up and down method using 10 animals. The data are shown in Table I, under column entitled (C).

The subject of another data set is H2 -receptor. The conditions noted are these: isolated guinea pig atrium; effects mediated by the H2 -receptor; Ash and Schild, Black et al.; cited from earlier work.
Setting [3] is: pylorus-ligated rats, intraduodenal, 4 hr, probit method, base.
Setting [4] is: anesthetized dogs, i.v., histamine infusion 160 μg/Kg-hr, dose producing 50% inhibition of the acid output, base.

`NC(N)=Nc1nc(CSCCC(N)=NS(N)(=O)=O)cs1` [Example 1, N-sulfamoyl-3-[(2-guanidinothiazol-4-yl)methylthio]propionamidine]: the results for the ED50 in the data set on Gastric acid secretion [1] (setting [3]) and in the data set on Gastric acid secretion [2] (setting [4]) were 0.87 mg/kg and 0.0087 ± 0.0005 mg/kg, respectively. Moreover, the median lethal dose (LD50) at 168 h in the data set “Acute toxicity in mice” came to 244 mg/kg.
With `C/N=C(\S)NCCSCc1[nH]cnc1C` [metiamide], the “inhibition of histamine effects on gastric acid secretion and heart rate” value in the data set on H2 -receptor is recorded as “antagonized”.
As for `CN/C(=N/CCSCc1nc[nH]c1C)NC#N` [Compound A, Ncyano-Nmethyl-N{2[(4methyl-5-imidazolyl)methylthio]ethyl}guanidine], the ED50 worked out at 42.6 mg/kg in the data set with Gastric acid secretion [1] (4 h) and 0.333 ± 0.042 mg/kg with Gastric acid secretion [2]. Besides, in “Acute toxicity in mice”, the 50% lethal dose (LD50) at 168 h amounted to 152 mg/kg.
As to `N#CN=C(N)NCCSCc1csc(NC(=N)N)n1` [Compound B, 2guanidino-4-[2(2-cyanoguanidino)ethylthiomethyl]thiazole], the results for the ED50 in the data set with Gastric acid secretion [1] (setting [3]) and with Gastric acid secretion [2] (setting [4]) were 49.3 mg/kg and 0.0352 ± 0.0022 mg/kg, respectively. Further, the median lethal dose (LD50) at 168 h in the data set “Acute toxicity in mice” was determined as 94.6 mg/kg.
As for `COc1ccc(CN(CCN(C)C)c2ccccn2)cc1` [mepyramine], the “inhibition of histamine effects on gastric acid secretion and heart rate” value in the data set on H2 -receptor is “not inhibited”.
For the compound `CS(=O)(=O)NC(=N)CCSCc1csc(NC(=N)N)n1` [Example 2, N-methanesulfonyl-3-[(2-guanidinothiazol-4-yl)-methylthio]propionamidine], the values for the ED50 with Gastric acid secretion [1] (setting [3]) and with Gastric acid secretion [2] (setting [4]) were 8.9 mg/kg and 0.0191 ± 0.0026 mg/kg, respectively. For the same compound, the LD50 at 168 h in “Acute toxicity in mice” was 152 mg/kg.

These data come from patent US4283408A, “Guanidinothiazole compounds, process for preparation and gastric inhibiting compositions containing them” (Yamanouchi Pharmaceutical Co., Ltd., priority 1979, dated 1981).
